Laboratory results: patent US10028906B2, “Method and kit for treating a solid tumor and associated desmoplasia” (Rosalind Franklin Univ. of Medicine and Science, priority 2016, dated 2018)
Entries after “also recorded” stand apart in the source; their conditions may differ. Where no end group is shown, it is not given here.

What was measured:
[1] = in vivo toxicity study (body weight change); settings: tumor-bearing mice
Description: (§1) FIGS. 6-24 show the experimental protocol and results of in vivo studies of orthotopic tumors derived from the Murine FC1199 cell line and implanted into Kras and P53 mice.
Ascites formation is a marker of late stage pancreatic cancer and can predict mortality.

[2] = test system: Human MIA PaCa2-Luc, and Murine FC1199 pancreatic cancer cell lines; test: in vitro cancer cell growth in two pancreatic cancer cell lines; format: cell-based; settings: FIGS. 2-5
Description: (§2) Peptides were examined in two different pancreatic cancer cell lines to determine consistency of response. We sought to determine if there was efficacy of the peptide alone, or in combination with conventional chemotherapy, i.e., does it potentiate the effects of current therapy. The two cell lines used were Human MIA PaCa2-Luc, and Murine FC1199 (derived from tumors in KPC GEM mice).
(§3) The in vitro studies used human MIA PaCa2-Luc, and Murine FC1199 cell lines.

[3] = test system: MIA PaCa2-Luc cancer cells; test: in vitro proliferation of MIA PaCa2-Luc cancer cells; format: cell-based, Human; settings: FIG. 2
Description: as §2
(§4) While not wishing to be bound to any particular theory, it was hypothesized that the peptides might still be effective in blocking the formation and/or removing the formation of desmoplasia or tumor stroma associated with a solid tumor alone acting to prevent and or to treat cancer and as well to providing greater access of the chemotherapeutic or immunotherapeutic agent to the tumor. […] It is believed that many large, and smaller, molecule immunotherapeutic agents will not react with Peptides 1 and 2 and they may also be used in combination with one another.
as §3

FC1199 cells = test: in vitro FC1199 cell growth, gemcitabine repression; format: cell-based, Murine; settings: FIGS. 3 and 5
Description: as §2, §3

FC1199 orthotopic tumors [4] = test: in vivo FC1199 orthotopic tumors, tumor burden as pancreas weight; design: species or system mice; settings: for potentiation of the therapeutic effects of gemcitabine / chemotherapeutic agent in vivo: combination, pancreas weight, FIGS. 21 and 22; for tumor burden / tumor growth as measured by pancreas weight: orthotopic FC1199 tumors in mice, no day stated
Description: FIGS. 1-24 show the in vitro and in vivo studies of CCNp37 (SEQ ID NO. 37) (Peptide 2 in the FIGS.) and CCNp38 (SEQ ID NO. 38) (Peptide 1 in the FIGS.) alone or in combination with a chemotherapeutic agent gemcitabine in treating pancreatic cells or orthotopic tumors implanted in the pancreas of mice. Gemcitibine is an example of an approved small molecule chemotherapeutic agent that is used in the clinic for pancreatic cancer, other suitable chemotherapeutic or immunotherapeutic agents are, for example, Abraxane (Paclitaxel Albumin-stabilized Nanoparticle Formulation), Afinitor (Everolimus), Erlotinib Hydrochloride, Everolimus, 5-FU (Fluorouracil Injection), Fluorouracil Injection, Gemcitabine Hydrochloride, Gemzar (Gemcitabine Hydrochloride), Irinotecan Hydrochloride Liposome, Mitomycin C, Mitozytrex (Mitomycin C), Mutamycin (Mitomycin C), Onivyde (Irinotecan Hydrochloride Liposome), Paclitaxel Albumin-stabilized Nanoparticle Formulation, Sunitinib Malate, Sutent (Sunitinib Malate), and Tarceva (Erlotinib Hydrochloride) and combinations of the same. Other suitable drug combinations for treating pancreatic cancer includes: FOLFIRINOX, GEMCITABINE-CISPLATIN, GEMCITABINE-OXALIPLATIN, and OFF. Suitable drugs for treatment for gastroenteropancreatic neuroendocrine tumors: Lanreotide Acetate, and Somatuline Depot (Lanreotide Acetate).
as §1
FIGS. 18 and 19 show the protocol of a second in vivo experiment (Experiment 2).
(§5) FIGS. 21-24 show the protocol for the second invo experiment on the effectiveness of administering Peptides 1 and 2±gemcitabine. […] In FIG. 21, peptide 1 or 2 was delivered on day 11 of the study after tumor implantation and gemcitabine was delivered on day 14. […] Ascites formation is a marker of late stage pancreatic cancer and can predict mortality.

FC1199 orthotopic tumors [5] = test: in vivo FC1199 orthotopic tumors, matrix deposition (desmoplasia); design: species or system mice; settings: no day stated
Description: as §4, §1

FC1199 orthotopic tumors [6] = test: in vivo FC1199 orthotopic tumors, vessel number/vessel density (angiogenesis); design: species or system mice; settings: no day stated
Description: as §4

FC1199 orthotopic tumors [7] = test: in vivo FC1199 orthotopic tumors, ascites production; design: species or system mice
Description: as §5

renal fibrosis = settings: disclosed in U.S. Pat. No. 7,780,949; cited from earlier work

FSGVSSDGRSSTPH [Peptide 2, FSGVSSDGRSSTPH]
toxicity (body weight change) [1]: non-toxic

SDRSADPNNQTGIS [Peptide 1, Mouse analog with native cysteines replaced with serines]
cancer growth / cell proliferation in vitro ([2]; agent alone): did not slow cancer growth in vitro; also recorded: do not have an effect in cell proliferation
potentiation of the effects of gemcitabine in reducing cancer growth in vitro ([2]; combination with gemcitabine): did little or nothing to potentiate the effects of the chemotherapeutic agent gemcitabine in reducing cancer growth in vitro
proliferation of MIA PaCa2-Luc cancer cells [3]: do not reduce the proliferation of MIA PaCa2-Luc cancer cells
potentiation of gemcitabine repression of FC1199 cell growth (FC1199 cells): did not potentiate the effects of gemcitabine in repressing of FC1199 cell growth
tumor burden in terms of pancreas weight, day 14 (FC1199 orthotopic tumors [4]; Experiment 2, day 14, vs control): effective in reducing the tumor burden in terms of reduced pancreas weight when compared to a control
tumor burden in terms of pancreas weight, day 25 (FC1199 orthotopic tumors [4]; Experiment 2, day 25, vs control): effective in reducing the tumor burden in terms of reduced pancreas weight when compared to a control
potentiation of the therapeutic effects of gemcitabine / chemotherapeutic agent in vivo (FC1199 orthotopic tumors [4]): can potentiate the therapeutic effects of the standard chemotherapeutic agent gemcitabine
potentiation of the therapeutic effects of gemcitabine / chemotherapeutic agent in vivo (FC1199 orthotopic tumors [4]; listed as CCNp38): treat a solid tumor more effectively than the chemotherapeutic or immunotherapeutic agents alone
tumor burden / tumor growth as measured by pancreas weight (FC1199 orthotopic tumors [4]): effective in reducing the growth of orthotopic FC1199 tumor burden as measured by pancreas weight; also recorded: effective in reducing tumor growth and weight
expansion and spread of the tumor and cancer cells (FC1199 orthotopic tumors [4]; overview FIG. 1): blocking the expansion and spread of the tumor and cancer cells
desmoplasia as measured by matrix deposition area (FC1199 orthotopic tumors [5]): effective in treating desmoplasia or stroma associated with a solid tumor; also recorded: a reduction in desmoplasia as measured by matrix deposition area
angiogenesis as measured by vessel number/vessel density (FC1199 orthotopic tumors [6]): reducing angiogenesis; also recorded: a reduction in angiogenesis as measured by vessel number/vessel density
number of mice with ascites / ascites formation (FC1199 orthotopic tumors [7]; day 25, vs control): reducing the formation of ascites associated with a solid tumor; also recorded: effective in reducing the number of mice with ascites
inflammation (FC1199 orthotopic tumors [7]; inferred from ascites data): reduce inflammation

Nc1ccn([C@@H]2O[C@H](CO)[C@@H](O)C2(F)F)c(=O)n1 [Gemcitabine, gemcitabine, reference compound]
tumor burden / tumor growth as measured by pancreas weight (FC1199 orthotopic tumors [4]): produces a dose-dependent response to tumor burden

B1: full-length CCN3 molecule: full-length CCN3 protein of U.S. Pat. No. 7,780,949 (protein, UniProt P48745 1-357, looked up)
chain: MQSVQSTSFCLRKQCLCLTFLLLHLLGQVAATQRCPPQCPGRCPATPPTCAPGVRAVLDGCSCCLVCARQRGESCSDLEPCDESSGLYCDRSADPSNQTGICTAVEGDNCVFDGVIYRSGEKFQPSCKFQCTCRDGQIGCVPRCQLDVLLPEPNCPAPRKVEVPGECCEKWICGPDEEDSLGGLTLAAYRPEATLGVEVSDSSVNCIEQTTEWTACSKSCGMGFSTRVTNRNRQCEMLKQTRLCMVRPCEQEPEQPTDKKGKKCLRTKKSLKAIHLQFKNCTSLHTYKPRFCGVCSDGRCCTPHNTKTIQAEFQCSPGQIVKKPVMVIGTCTCHTNCPKNNEAFLQELELKTTRGKM
modifications: full-length
fibrosis in an in vitro model of renal fibrosis (renal fibrosis): blocks fibrosis
